Data taken from ChEMBL document CHEMBL2040830, “Makomotindoline from Makomotake, Zizania latifolia infected with Ustilago esculenta” (2012).
The source made the active and inactive calls. The calls are words filed in the database; no cut-off is given here.

How the values were obtained:
C6 [1] = experiment: Cytotoxicity against rat C6 cells assessed as cell death after 24 to 48 hrs by MTT assay; assay type: functional, cell-based
C6 [2] = experiment: Growth stimulation of rat C6 cells at 100 uM after 48 hrs by MTT assay relative to control; assay type: functional
C6 [3] = experiment: Growth stimulation of rat C6 cells at 100 uM after 24 hrs by MTT assay relative to control; assay type: functional
C6 [4] = experiment: Cytotoxicity against rat C6 cells assessed as decrease in cell number at 100 uM after 24 hrs by MTT assay; assay type: functional; set-up: scale not given: the % may be the effect or the level left
C6 [5] = experiment: Cytotoxicity against rat C6 cells assessed as decrease in cell number at 10 uM after 24 hrs by MTT assay; assay type: functional; set-up: scale not given: the % may be the effect or the level left
C6 [6] = experiment: Cytotoxicity against rat C6 cells assessed as cell death at 10 to 100 uM after 48 hrs by MTT assay; assay type: functional, cell-based
C6 [7] = experiment: Cytotoxicity against rat C6 cells assessed as decrease in cell number at 100 uM after 48 hrs by MTT assay; assay type: functional; set-up: scale not given: the % may be the effect or the level left

Which Activity (C6 [1]) does the source give for `OC[C@H]1O[C@@H](N2c3ccccc3[C@]3(O)CCO[C@H]23)[C@H](O)[C@@H](O)[C@@H]1O` here?
Its Activity is “inactive”.

Which Activity (C6 [2]) does the source give for `O[C@@]12CCO[C@@H]1Nc1ccccc12` here?
The Activity was 114.2%.

What about the Activity (C6 [3]) of the same compound?
The Activity was 112%.

Which Activity (C6 [4]) does the source give for `OC[C@@H]1O[C@H](N2c3ccccc3[C@]3(O)CCO[C@H]23)[C@@H](O)[C@H](O)[C@H]1O` here?
Its Activity is 83.9%.

What about the Activity (C6 [5]) of the same compound?
Its Activity is 92.4%.

What about the Activity (C6 [6]) of the same compound?
The Activity was “inactive”.

And the Activity (C6 [7])?
Its Activity is 87.9%.
